ChEMBL document CHEMBL1201862, “PubChem BioAssay data set” (2004)
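Tested at 5 concentrations; 48 h exposure; 96-well plates; endpoints linearly interpolated, else capped at highest concentration. GI50 marks 50% less growth.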 Calls of active or inactive are those of the source. Cut-off read from the data, not from the text of the source: active = GI50 up to about 1.1 µM and inactive = higher.

Assays:
Test in all cases: NCI tumour cell line growth inhibition, 48 h
A549 = tested on: A549
ACHN = tested on: ACHN
BT-549 = tested on: BT-549
CCRF-CEM = tested on: CCRF-CEM
HCC 2998 = tested on: HCC 2998
HCT-116 = tested on: HCT-116
HL-60 = tested on: HL-60
HOP-92 = tested on: HOP-92
Hs-578T = tested on: Hs-578T
M14 = tested on: M14
MDA-MB-435 = tested on: MDA-MB-435
MOLT-4 = tested on: MOLT-4
Malme-3M = tested on: Malme-3M
OVCAR-8 = tested on: OVCAR-8
PC-3 = tested on: PC-3
RXF 393 = tested on: RXF 393
SF-295 = tested on: SF-295
TK-10 = tested on: TK-10
UACC-257 = tested on: UACC-257
UO-31 = tested on: UO-31

Compound: Cc1ccccc1/N=N/c1c(O)c(S(=O)(=O)O)cc2cc(S(=O)(=O)O)ccc12
- GI50 (A549): > 100 µM (inactive)
- GI50 (ACHN): > 100 µM (inactive)
- GI50 (BT-549): > 100 µM (inactive)
- GI50 (CCRF-CEM): > 100 µM (inactive)
- GI50 (HCC 2998): > 100 µM (inactive)
- GI50 (HCT-116): > 100 µM (inactive)
- GI50 (HL-60): > 100 µM (inactive)
- GI50 (HOP-92): > 100 µM (inactive)
- GI50 (Hs-578T): > 100 µM (inactive)
- GI50 (M14): > 100 µM (inactive)
- GI50 (MDA-MB-435): > 100 µM (inactive)
- GI50 (MOLT-4): > 100 µM (inactive)
- GI50 (Malme-3M): > 100 µM (inactive)
- GI50 (OVCAR-8): > 100 µM (inactive)
- GI50 (PC-3): > 100 µM (inactive)
- GI50 (RXF 393): > 100 µM (inactive)
- GI50 (SF-295): > 100 µM (inactive)
- GI50 (TK-10): > 100 µM (inactive)
- GI50 (UACC-257): > 100 µM (inactive)
- GI50 (UO-31): > 100 µM (inactive)

Compound: O=c1cnn(C/C=C/CO)c(=O)[nH]1
- GI50 (A549): > 100 µM (inactive)
- GI50 (ACHN): > 100 µM (inactive)
- GI50 (BT-549): > 100 µM (inactive)
- GI50 (CCRF-CEM): > 100 µM (inactive)
- GI50 (HCC 2998): > 100 µM (inactive)
- GI50 (HL-60): > 100 µM (inactive)
- GI50 (HOP-92): > 100 µM (inactive)
- GI50 (Hs-578T): > 100 µM (inactive)
- GI50 (M14): > 100 µM (inactive)
- GI50 (MDA-MB-435): > 100 µM (inactive)
- GI50 (Malme-3M): > 100 µM (inactive)
- GI50 (OVCAR-8): > 100 µM (inactive)
- GI50 (PC-3): > 100 µM (inactive)
- GI50 (RXF 393): > 100 µM (inactive)
- GI50 (TK-10): > 100 µM (inactive)
- GI50 (UACC-257): > 100 µM (inactive)
- GI50 (UO-31): > 100 µM (inactive)

Compound: CC(NC(=O)C(NC(=O)C(NC(=O)C(F)(F)F)C(C)C)C(C)C)C(=O)Oc1c(Cl)c(Cl)c(Cl)c(Cl)c1Cl (stereo unspecified)
- GI50 (A549): > 100 µM (inactive)
- GI50 (ACHN): > 100 µM (inactive)
- GI50 (BT-549): > 100 µM (inactive)
- GI50 (CCRF-CEM): > 100 µM (inactive)
- GI50 (HCC 2998): > 100 µM (inactive)
- GI50 (HCT-116): > 100 µM (inactive)
- GI50 (HL-60): > 100 µM (inactive)
- GI50 (HOP-92): 32.5 µM (inactive)
- GI50 (Hs-578T): > 100 µM (inactive)
- GI50 (M14): > 100 µM (inactive)
- GI50 (MDA-MB-435): > 100 µM (inactive)
- GI50 (MOLT-4): > 100 µM (inactive)
- GI50 (Malme-3M): > 100 µM (inactive)
- GI50 (OVCAR-8): > 100 µM (inactive)
- GI50 (PC-3): > 100 µM (inactive)
- GI50 (RXF 393): > 100 µM (inactive)
- GI50 (TK-10): > 100 µM (inactive)
- GI50 (UACC-257): > 100 µM (inactive)
- GI50 (UO-31): 86.7 µM (inactive)

Compound: S=C(N/N=C/c1ccccn1)N1CC2CCC(CC2)C1
- GI50 (A549): < 0.01 µM (active)
- GI50 (ACHN): < 0.01 µM (active)
- GI50 (BT-549): < 0.01 µM (active)
- GI50 (CCRF-CEM): < 0.01 µM (active)
- GI50 (HCC 2998): 0.0895 µM (active)
- GI50 (HCT-116): < 0.01 µM (active)
- GI50 (HL-60): < 0.01 µM (active)
- GI50 (HOP-92): 0.0568 µM (active)
- GI50 (Hs-578T): 0.299 µM (active)
- GI50 (M14): < 0.01 µM (active)
- GI50 (MDA-MB-435): 0.0404 µM (active)
- GI50 (MOLT-4): < 0.01 µM (active)
- GI50 (Malme-3M): < 0.047 µM (active)
- GI50 (OVCAR-8): < 0.01 µM (active)
- GI50 (PC-3): < 0.01 µM (active)
- GI50 (RXF 393): 0.0703 µM (active)
- GI50 (SF-295): < 0.0128 µM (active)
- GI50 (TK-10): < 0.01 µM (active)
- GI50 (UACC-257): < 0.01 µM (active)
- GI50 (UO-31): < 0.0111 µM (active)
